From patent publication US6020363A, “Isocoumarin derivatives and use thereof in drugs” (Mercian Corporation, priority 1998, dated 2000)

How the values were obtained:
carrageenin edema = test: Effect on Carrageenin Edema; format: in vivo, ICR mice; settings: for Degree of edema (%): 2 h after carrageenin, mean ± SE, control 47.4 ± 2.8
Description: The effect on carrageenin edema was tested by using ICR mice in groups of 6-7. Specifically, Compound 3 was orally administered thereto in a dose of 3 or 30 mg/kg body weight. As a positive control drug, indomethacin was similarly administered in a dose of 20 mg/kg body weight. After 30 minutes, 25 μl of a 1% carrageenin solution was subcutaneously injected into the sole of the right hind leg. Two hours after the administration of carrageenin, the thickness of the sole was measured with digital vernier calipers, and the degree of edema (%) based on the thickness measured before administration was calculated.

[1] = tested on: neogenesis of tumor vessels induced by the transplanted mouse tumor S180; test: Inhibitory Effect on Vascularization Using the Mouse Back Subcutaneous Transplantation Method; format: in vivo, male ICR mouse; settings: for Vascularization score: 5 days, mean ± SE, control 2.93 ± 0.07
Description: The inhibitory effect of Compounds 1 and 3 in accordance with the present invention on the neogenesis of tumor vessels induced by the transplanted mouse tumor S180 was tested using the mouse back subcutaneous transplantation method. Specifically, 1×10^7 S180 cells were injected into a chamber formed by attaching a Millipore filter having a pore size of 0.45 μm to either side of a Millipore ring. After the injection hole was stopped up, this chamber was transplanted into an air sac formed beneath the skin of the back of a male ICR mouse (9-10 weeks old). Starting from the day of transplantation, a test compound or a solvent control comprising a 0.5% carboxymethylcellulose solution was orally administered for 5 days. After the skin was separated on the fifth day of transplantation, an O-ring of 10 mm internal diameter having the same shape as the Millipore ring was placed on the part of the skin which had been in contact with the chamber, observed under a stereoscopic microscope, and photographed.
In the photographs so taken, the degree of vascularization was rated 0, 1, 2 or 3 according to the number of 3 mm or longer tortuous blood vessels characteristic of tumoral vessels, and scored on the following basis.
0: No tumoral vessel was observed.
1: One tumoral vessel was observed.
2: Two tumoral vessels were observed.
3: Three or more tumoral vessels were observed.

[2] = Levels of Orally Administered Test Compounds in Blood Plasma; format: in vivo, male ICR mice; settings: oral 25 mg/kg
Description: Each of Compound 3 and MI43 was orally administered to fasted male ICR mice (weighing 18-21 g) in a dose of 25 mg/kg. Blood samples were collected from the mice 5 minutes, 30 minutes, 4 hours, 8 hours and 24 hours after administration (3 mice per point for Compound 3 and 5 mice per point for MI43). These blood samples were centrifuged to obtain blood plasma samples. Each of the blood plasma samples was subjected to the following pretreatment and then analyzed by high-performance liquid chromatography (HPLC). 1.8 ml of a saturated aqueous solution of ammonium sulfate and 1.0 ml of methanol were added to and mixed with 0.2 ml of the blood plasma sample. This mixture was shaken with 3.5 ml of ethyl acetate. After this mixture was centrifuged, the ethyl acetate layer was separated. Moreover, the aqueous layer was shaken with 3.5 ml of ethyl acetate, followed by centrifugation. The ethyl acetate layer thus obtained was combined with the previously separated ethyl acetate layer, and this mixture was evaporated to dryness under reduced pressure. The resulting residue was redissolved in 0.2 ml of a 50% aqueous solution of acetonitrile and used as a sample for HPLC.
The analytical conditions for HPLC (using the CCTD system manufactured by Toso Co., Ltd.) were as follows: A YMC A-312 column (ODS 6×150 mm; manufactured by YMC Co., Ltd.) was used as the column. As the mobile phase, a 60:40 mixture of acetonitrile and 0.1% aqueous TFA was used for Compound 3, and a 40:60 mixture of acetonitrile and 0.1% aqueous TFA was used for MI43. The rest compound was eluted at a flow velocity of 1.0 ml/min and detected by UV light at 244 nm.

[3] = set-up: species or system DBA/1J mice; settings: mouse, in vivo, po, 30 mg/kg
Description: Among the compounds in accordance with the present invention, each of Compounds 1, 2 and 3 was orally or intraperitoneally administered to eight DBA/1J mice in a dose of 100 mg/kg body weight. […] This seems to indicate that the compounds used in the present invention have no or very little, if any, acute toxicity. Moreover, Compound 1, in a dose of 100 mg/kg body weight, or Compound 3, in a dose of 30 mg/kg body weight, was orally administered to eight mice of the aforesaid strain for 40 days. […] Thus, the compounds of the present invention have little subacute toxicity. Since other compounds in accordance with the present invention are estimated to have similar properties, the compounds of the present invention can be used very safely.

[4] = tested on: collagen-induced arthritis; test: Inhibitory Effect on Collagen-Induced Arthritis (No. 1), sole thickness; format: in vivo, DBA/1J mice; settings: intraperitoneal, mean ± SD, *p < 0.05 vs control (8.02 ± 0.82)
Description: The preventive effect on the onset of collagen-induced arthritis was tested by using DBA/1J mice in groups of 5-8. Specifically, type II collagen was mixed with an equal volume of Freund's complete adjuvant and emulsified to prepare a 1 mg/ml emulsion. Mice were sensitized by administering 0.1 ml of this emulsion intracutaneously to the root of the tail. After 21 days, the mice were additionally immunized by emulsifying type II collagen in the same manner as before and administering 0.1 ml of the emulsion intraperitoneally so as to induce arthritis.
Starting from the day of the first sensitization with type II collagen, Compound 1 was orally administered, once a day, for 43 days in a dose of 10 or 30 mg/kg body weight. Similarly, each of Compounds 2 and 3 was intraperitoneally administered, once a day, for 43 days in a dose of 1 or 10 mg/kg body weight. Their inhibitory effect on collagen-induced arthritis was evaluated by measuring the sole thicknesses of the hind legs periodically with digital vernier calipers.

[5] = tested on: cyclooxygenase (or prostaglandin endoperoxide synthase); test: Effect on cyclooxygenase activity; format: biochemical, sheep
Description: The inhibitory effect of Compound 3 on cyclooxygenase (or prostaglandin endoperoxide synthase) activity was tested according to the method of Evans et al. (Biochemical Pharmacology, 36: 2035-2037, 1987). Specifically, an enzyme preparation derived from the seminal vesicles of sheep was incubated at 27° C. for 1.5 minutes in the presence of 500 μM arachidonic acid and 300 μM Compound 3. After the reaction was stopped by adding trichloroacetic acid to the reaction mixture, its absorbance was measured at 532 nm.

COc1cc(O)c2c(=O)oc(C(C)C(=O)O)cc2c1 (stereo not shown) [Compound 3, 2-(8-hydroxy-6-methoxy-1-oxo-1H-2-benzopyran-3-yl)propionic Acid]
effect on carrageenin edema (in words) (carrageenin edema; doses of 3 and 30 mg/kg): no inhibitory effect on carrageenin edema | Degree of edema (%) (carrageenin edema; oral 3 mg/kg): 41.7 ± 3.1% | Degree of edema (%) (carrageenin edema; oral 30 mg/kg): 46.1 ± 4.2% | Vascularization score ([1]; oral 0.3 mg/kg, n = 10): 2.40 ± 0.4 | Vascularization score ([1]; oral 1.0 mg/kg, n = 11): 1.55 ± 0.43 | Vascularization score ([1]; oral 3 mg/kg, n = 14): 0.86 ± 0.33 | Vascularization score ([1]; oral 10 mg/kg, n = 14): 0.86 ± 0.38 | inhibition of vascularization induced by tumor cell S180 (in words) ([1]; oral, 1-10 mg/kg body weight): significantly inhibited vascularization | concentration at 5 min ([2]; mouse, plasma, 5 min, read-out: Concentration of unchanged Compound 3 in blood plasma, mean): 123 µg/mL | concentration at 0.5 h ([2]; mouse, plasma, 30 min, read-out: Concentration of unchanged Compound 3 in blood plasma, mean): 131 µg/mL | concentration at 4 h ([2]; mouse, plasma, 4 hr, read-out: Concentration of unchanged Compound 3 in blood plasma, mean): 63 µg/mL | concentration at 8 h ([2]; mouse, plasma, 8 hr, read-out: Concentration of unchanged Compound 3 in blood plasma, mean): 38.4 µg/mL | concentration at 24 h ([2]; mouse, plasma, 24 hr, read-out: Concentration of unchanged Compound 3 in blood plasma, mean): 0.19 µg/mL | Tmax ([2]; mouse, plasma, unchanged compound, read-out: time of peak / highest plasma level after administration (converted)): 30 min | plasma concentration after 8 hours (in words) ([2]; 8 hr): remained high even after 8 hours | plasma concentration after 24 hours (in words) ([2]; 24 hr): dropped to a vary low level after 24 hours | evidence of toxicity, 40 days [3]: no animal showed evidences of toxicity | mortality, 40 days [3]: No animal died | Sole thickness (sum of left and right, mm), after 37 days ([4]; 1 mg/kg/day): 7.08 ± 0.16 mm | Sole thickness (sum of left and right, mm), after 37 days ([4]; 10 mg/kg/day): 6.78 ± 0.98 mm | inhibitory effect on cyclooxygenase (in words) ([5]; 30 μM or 300 μM): no inhibitory effect on cyclooxygenase or lipoxygenase | Degree of inhibition (%), Cyclooxygenase ([5]; 300 μM Compound 3, 500 μM arachidonic acid, n = 2): -4.0%
